Laboratory results: publication PMC5726399 (Neuropharmacology, 2017)
“Also recorded” adds a separate entry of the source. Where a name gives a salt, the structure may show the parent alone. Read-outs that look alike come from different tables or passages of the source. Where no end group is shown, it is not given here.

Key:
NMDA receptors [1] = conditions: ref Chen et al., 2010, cited from earlier work; for effect on NMDA-induced substance P release: Marvizon et al., 1997
AC/PKA pathway = assay: NK1R internalization induced by forskolin or 8-Br-cAMP in slices; set-up: species or system rat; conditions: 60 min; for NK1R internalization elicited: 10 μM forskolin or 0.5 mM 8-Br-cAMP, no NMDA
[2] = system: NMDA receptor-induced substance P release; assay: NMDA-induced NK1R internalization in slices preincubated with BVT948; set-up: species or system rat; conditions: 10 μM BVT948, 60 min preincubation
[3] = system: CTX-insensitive component of NMDA-induced substance P release; assay: CTX-insensitive component of NMDA-induced substance P release in slices; set-up: species or system rat; conditions: 1 μM DAMGO, 100 μM SQ22536 or 10 μM KT5720, 60 min; for additional inhibition in presence of CTX GVIA: 1 μM CTX GVIA; for additional inhibition in presence of CTX MVIIC: 1 μM CTX MVIIC
protein kinase A (PKA) = assay: PKA inhibition: NMDA-induced NK1R internalization in slices; set-up: species or system rat; conditions: 10 μM, 60 min
[4] = system: NMDA receptors in DRG neurons; format: cell-based, rat
[5] = system: substance P release / NK1R internalization in lamina I neurons; assay: In vivo NK1R internalization induced by intrathecal NMDA; set-up: species or system rat; conditions: for lamina 1 neurons with NK1R internalization in example image: confocal image, one rat per group, L4
NMDA receptors [6] = assay: NMDA-induced NK1R internalization in spinal cord slices; set-up: species or system rat; conditions: 10 μM NMDA + 10 μM D-Ser, 2 min, 35 °C
protein kinase C (PKC) = assay: PKC inhibitors and activators: NMDA-induced NK1R internalization in slices; set-up: species or system rat; conditions: for effect on NMDA-induced substance P release: 60 min
adenylyl cyclase (AC) = assay: AC inhibition: NMDA-induced NK1R internalization in slices; set-up: species or system rat; conditions: SQ22536 10 μM, 60 min
TRPV1 channels [7] = conditions: cited from earlier work
TRPV1 channels [8] = system: TRPV1 channels; set-up: species or system rat
rat brain membranes = conditions: ref Grimwood et al., 2000; cited from earlier work
[9] = biological target: NMDA receptors with the NR2B subunit (Rattus norvegicus, UniProt P35439+Q00960); conditions: % NK1R internalization
Sequence of NMDA receptors with the NR2B subunit (Q00960 27-1482, other chains not shown): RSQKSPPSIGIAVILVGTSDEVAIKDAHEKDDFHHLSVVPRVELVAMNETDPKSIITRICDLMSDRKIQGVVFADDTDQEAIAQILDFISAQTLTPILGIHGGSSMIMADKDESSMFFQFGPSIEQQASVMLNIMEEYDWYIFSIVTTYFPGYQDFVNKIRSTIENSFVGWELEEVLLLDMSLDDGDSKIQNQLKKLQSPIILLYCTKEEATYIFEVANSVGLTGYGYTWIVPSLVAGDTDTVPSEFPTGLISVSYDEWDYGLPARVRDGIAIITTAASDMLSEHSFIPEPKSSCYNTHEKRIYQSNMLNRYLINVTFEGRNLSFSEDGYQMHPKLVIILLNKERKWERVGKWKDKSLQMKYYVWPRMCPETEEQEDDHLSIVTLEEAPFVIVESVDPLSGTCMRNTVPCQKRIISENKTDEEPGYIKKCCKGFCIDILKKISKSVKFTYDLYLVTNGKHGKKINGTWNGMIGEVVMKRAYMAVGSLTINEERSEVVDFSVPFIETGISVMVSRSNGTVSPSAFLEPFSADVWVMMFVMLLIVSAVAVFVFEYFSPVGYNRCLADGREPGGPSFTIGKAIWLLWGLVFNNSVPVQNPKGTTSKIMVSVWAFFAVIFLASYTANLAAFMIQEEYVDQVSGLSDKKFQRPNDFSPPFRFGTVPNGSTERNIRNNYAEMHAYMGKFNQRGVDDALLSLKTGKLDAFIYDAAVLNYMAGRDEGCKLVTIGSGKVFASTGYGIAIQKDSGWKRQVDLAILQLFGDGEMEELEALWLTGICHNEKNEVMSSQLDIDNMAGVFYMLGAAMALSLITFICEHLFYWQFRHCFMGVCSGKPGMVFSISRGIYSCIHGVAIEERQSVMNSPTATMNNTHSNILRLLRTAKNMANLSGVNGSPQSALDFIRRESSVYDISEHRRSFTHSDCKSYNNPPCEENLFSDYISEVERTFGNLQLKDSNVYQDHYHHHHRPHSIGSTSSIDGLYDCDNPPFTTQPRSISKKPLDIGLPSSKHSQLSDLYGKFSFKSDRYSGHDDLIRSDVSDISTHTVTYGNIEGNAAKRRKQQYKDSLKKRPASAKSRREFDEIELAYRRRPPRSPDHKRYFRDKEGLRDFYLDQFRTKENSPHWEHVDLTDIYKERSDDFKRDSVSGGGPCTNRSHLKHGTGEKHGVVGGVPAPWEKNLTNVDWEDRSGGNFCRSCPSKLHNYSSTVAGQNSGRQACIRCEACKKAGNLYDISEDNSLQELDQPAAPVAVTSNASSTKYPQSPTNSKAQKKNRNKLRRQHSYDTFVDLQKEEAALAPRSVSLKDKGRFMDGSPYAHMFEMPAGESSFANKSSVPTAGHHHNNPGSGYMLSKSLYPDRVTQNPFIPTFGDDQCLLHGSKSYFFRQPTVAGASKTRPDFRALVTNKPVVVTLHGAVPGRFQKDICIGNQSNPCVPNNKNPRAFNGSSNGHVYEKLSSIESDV

NR1a/NR2B NMDA receptors = conditions: Xenopus oocytes; ref Williams, 1993; cited from earlier work
GIRK channels = system: GIRK channels; set-up: species or system rat
[10] = system: NMDA receptor-induced substance P release; assay: NMDA-induced NK1R internalization in slices preincubated with BDNF; set-up: species or system rat
[11] = chelerythrine 10 μM, Ro-32-0432, TPPB 1 μM, with 10 nM DAMGO
[12] = chelerythrine 10 μM, Ro-32-0432, TPPB, PMA 1 μM

Molecule: NC(CCCP(=O)(O)O)C(=O)O (centres unmarked) [2-amino-phosphopentanoic acid]
- effect on NMDA-induced substance P release (NMDA receptors [1]): inhibited

Molecule: Nc1ncnc2c1nc(Br)n2[C@@H]1O[C@@H]2COP(=O)(O)O[C@H]2[C@H]1O [8-Br-cAMP, 8-Bromoadenosine-3′,5′-cyclic monophosphate]
- NK1R internalization elicited (AC/PKA pathway): greater than NMDA+D-Ser, with 8-Br-cAMP producing the larger effect

Molecule: CC1(C)C(=O)N=C2C1=C(O)C(=O)c1ccccc12 [BVT948, 4-hydroxy-3,3-dimethyl-2H-benz[g]indole-2,5(3H)-dione]
- effect on NMDA-induced NK1R internalization [2]: substantially increased NMDA-induced NK1R internalization

Molecule: CCCCCCOC(=O)[C@]1(O)C[C@@H]2O[C@@]1(C)n1c3ccccc3c3c4c(c5c6ccccc6n2c5c31)C(=O)NC4 [KT5720, (9R,10S,12S)-2,3,9,10,11,12-Hexahydro-10-hydroxy-9-methyl-1-oxo-9,12-epoxy-1H-diindolo[1,2,3-fg:3′,2′,1′-kl]pyrrolo[3,4-i][1,6]benzodiazocine-10-carboxylic acid, hexyl ester]
- additional inhibition in presence of CTX GVIA [3]: did not produce any further inhibition
- additional inhibition in presence of CTX MVIIC [3]: did not produce any further inhibition
- effect on NMDA-induced NK1R internalization (protein kinase A (PKA)): did not completely abolish NMDA-induced NK1R internalization
- effect on NMDA-induced NK1R internalization (protein kinase A (PKA); listed as KT 5720): decreased

Molecule: C[C@]12N[C@H](Cc3ccccc31)c1ccccc12 [MK-801, (5S,10R)-(+)-5-Methyl-10,11-dihydro-5H-dibenzo[a, d]cyclohepten-5,10-imine maleate]
- effect on NMDA-induced substance P release (NMDA receptors [1]): inhibited
- effect on forskolin-evoked substance P release (AC/PKA pathway; 10 μM MK-801 or 1 μM DAMGO with 10 μM forskolin): substantially decreased their effect on substance P release, although not to control levels
- effect on 8-Br-cAMP-evoked substance P release (AC/PKA pathway; 10 μM MK-801 or 1 μM DAMGO with 0.5 mM 8-Br-cAMP): substantially decreased their effect on substance P release, although not to control levels

Molecule: CN[C@H](CC(=O)O)C(=O)O [NMDA, N-methyl-D-aspartate]
- [Ca2+]i increase [4]: increases in some of the neurons
- lamina 1 neurons with NK1R internalization in example image [5]: there was no NK1R internalization
- NK1R internalization induced (lamina I NK1R neurons) (NMDA receptors [6]): about 50%

Molecule: CN(C)C[C@H]1CCn2c(c(C3=C(c4cn(C)c5ccccc45)C(=O)NC3=O)c3ccccc32)C1.Cl [Ro-32-0432, 3-[(8S)-8-[(Dimethylamino)methyl]-6,7,8,9-tetrahydropyrido[1,2-a]indol-10-yl]-4-(1-methyl-1H-indol-3-yl)-1H-pyrrole-2,5-dione hydrochloride]
- effect on inhibition by 10 nM DAMGO (protein kinase C (PKC); [11]): did not increase its inhibition by DAMGO
- effect on NMDA-induced substance P release (protein kinase C (PKC); [12]): did not affect NMDA-induced substance P release

Molecule: Nc1ncnc2c1ncn2C1CCCO1 (centres unmarked) [SQ22536, 9-(Tetrahydro-2-furanyl)-9H-purin-6-amine]
- effect on NMDA-induced NK1R internalization (adenylyl cyclase (AC)): but not at 10 μM
- additional inhibition in presence of CTX GVIA [3]: did not produce any further inhibition
- additional inhibition in presence of CTX MVIIC [3]: did not produce any further inhibition

Molecule: CC(C)[C@H]1C(=O)N[C@H](CO)Cc2cc(NC(=O)/C=C/C=C/c3ccc(C(F)(F)F)cc3)ccc2N1C [TPPB, (2E4E)-N-[(2S,5S)-1,2,3,4,5,6-Hexahydro-5-(hydroxymethyl)-1-methyl-2-(1-methylethyl)-3-oxo-1,4-benzodiazocin-8-yl]-5-[4-(trifluoromethyl)phenyl]-2,4-pentadienamide]
- effect on inhibition by 10 nM DAMGO (protein kinase C (PKC)): did not affect inhibition by 10 nM DAMGO
- effect on NMDA-induced substance P release (protein kinase C (PKC)): strongly increased NMDA-induced substance P release

Molecule: NCC(CC(=O)O)c1ccc(Cl)cc1 (centres unmarked) [baclofen]
- effect on substance P release by dorsal root or low-concentration capsaicin (TRPV1 channels [7]; capsaicin on dorsal root or low concentrations, ref Lao et al., 2003): can be inhibited
- effect on substance P release by higher concentrations of capsaicin (TRPV1 channels [7]; higher capsaicin concentrations, ref Lao et al., 2003): did not inhibit substance P release

Molecule: COc1cc(CNC(=O)CCCC/C=C/C(C)C)ccc1O [capsaicin]
- NK1R internalization elicited by 0.3 μM capsaicin (TRPV1 channels [8]): 75%
- NK1R internalization elicited by 1 μM capsaicin (TRPV1 channels [8]): maximal NK1R internalization
- effect of substance P depletion on NMDA-induced substance P release (NMDA receptors [1]; C-fibers depleted by incubating slices with capsaicin): disappears
- EC50 (TRPV1 channels [7]; read-out: EC50 to induce NK1R internalization, ref Marvizon et al., 2003a): 370 nM

Molecule: Oc1cc2c(cc1O)CN(C(=S)NCCc1ccc(Cl)cc1)CCC2 [capsazepine]
- effect on capsaicin-induced substance P release (TRPV1 antagonist) (TRPV1 channels [7]; ref Lao et al., 2003): blocked

Molecule: COc1ccc2c(c[n+](C)c3c4cc5c(cc4ccc23)OCO5)c1OC [chelerythrine]
- effect on inhibition by 10 nM DAMGO (protein kinase C (PKC); [11]): did not increase its inhibition by DAMGO; also recorded: showed a trend to decrease the inhibition by 10 nM DAMGO
- effect on NMDA-induced substance P release (protein kinase C (PKC); [12]): did not affect NMDA-induced substance P release

Molecule: C=C[C@@]1(C)CC(=O)[C@]2(O)[C@@]3(C)[C@@H](O)CCC(C)(C)[C@@H]3[C@H](O)[C@H](OC(C)=O)[C@@]2(C)O1 [forskolin]
- NK1R internalization elicited (AC/PKA pathway): greater than NMDA+D-Ser

Molecule: CC(C(O)c1ccc(O)cc1)N1CCC(Cc2ccccc2)CC1 (centres unmarked) [ifenprodil]
- Kd (rat brain membranes): 25 nM
- top [9]: 62 ± 3%
- bottom ([9]; basal without NMDA 12±1%): 26 ± 2%
- potency to inhibit currents (NR1a/NR2B NMDA receptors): 340 nM

Molecule: CCN(CC)CC(=O)Nc1c(C)cccc1C [lidocaine]
- effect on NMDA-induced substance P release (action potential block) (NMDA receptors [1]): not affected

Molecule: PKI 14–22: protein kinase inhibitor 14–22, PKA inhibitor (GRTGRRNAI; also: myristoylated; UniProt P61925 15-23, looked up, fragment)
- effect on NMDA-induced NK1R internalization (protein kinase A (PKA)): decreased

Molecule: tertiapin Q
- effect on NMDA-induced NK1R internalization (GIRK channels): small but significant inhibition
- effect on inhibition by DAMGO (GIRK channels): did not affect the inhibition by DAMGO

B1: BDNF: brain-derived neurotrophic factor (protein, UniProt P23560 19-247, looked up)
Neurotrophic factor BDNF …: APMKEANIRGQGGLAYPGVRTHGTLESVNGPKAGSRGLTSLADTFEHVIEELLDEDQKVRPNEENNKDADLYTSRVMLSSQVPLEPPLLFLLEEYKNYLDAANMSMRVRRHSDPARRGELSVCDSISEWVTAADKKTAVDMSGGTVTVLEKVPVSKGQLKQYFYETKCNPMGYTKEGCRGIDKRHWNSQCRTTQSYVRALTMDSKKRIGWRFIRIDTSCVCTLTIKRGR
- effect on NMDA-induced NK1R internalization [10]: increased NMDA-induced NK1R internalization
- lamina 1 neurons with NK1R internalization in example image [5]: 5 out of 7 cells
- effect of BDNF on NMDA-induced NK1R internalization ([5]; intrathecal BDNF 0.3 μg, 4 h before NMDA + D-Ser, p<0.01 vs NMDA): significant increase in NMDA-induced NK1R internalization
